± gives the expanded uncertainty stated by the source.
How the values were obtained:
[1] = xn = mol fraction of the nth substance listed; settings: Ring tensiometer
[2] = refractive index (Na D-line) (dimensionless); xn = mol fraction of the nth substance listed; settings: 101 kPa, Liquid, Standard Abbe refractometry

CC(N)CN (stereo not given) [1,2-propanediamine] + O
Settings	refractive index, 283.15 K	refractive index, 293.15 K	refractive index, 303.15 K	refractive index, 313.15 K	refractive index, 323.15 K	surface tension liquid-gas, 283.15 K [mN/m]	surface tension liquid-gas, 293.15 K [mN/m]	surface tension liquid-gas, 303.15 K [mN/m]	surface tension liquid-gas, 313.15 K [mN/m]	surface tension liquid-gas, 323.15 K [mN/m]
[1], x1 = 0.01	–	–	–	–	–	67.4 ± 1.1	66.1 ± 1	64.7 ± 1	62.8 ± 1	61 ± 1
[1], x1 = 0.03	–	–	–	–	–	62.1 ± 0.9	60.5 ± 0.9	58.7 ± 0.9	57.3 ± 0.8	56 ± 0.8
[1], x1 = 0.05	–	–	–	–	–	58.1 ± 0.8	56.4 ± 0.8	55 ± 0.8	53.7 ± 0.8	52.2 ± 0.7
[1], x1 = 0.07	–	–	–	–	–	55 ± 0.7	53.5 ± 0.7	51.9 ± 0.7	50.5 ± 0.7	49.1 ± 0.7
[1], x1 = 0.1	–	–	–	–	–	51.7 ± 0.7	50.5 ± 0.7	48.9 ± 0.7	47.3 ± 0.6	45.8 ± 0.6
[1], x1 = 0.2	–	–	–	–	–	47.6 ± 0.6	46.4 ± 0.6	45 ± 0.6	43.2 ± 0.6	41.9 ± 0.6
[1], x1 = 0.3	–	–	–	–	–	44.8 ± 0.6	43.7 ± 0.6	42.4 ± 0.6	41 ± 0.6	39.7 ± 0.5
[1], x1 = 0.4	–	–	–	–	–	42.5 ± 0.6	41.1 ± 0.6	40.1 ± 0.6	38.6 ± 0.5	37.4 ± 0.5
[1], x1 = 0.5	–	–	–	–	–	40.6 ± 0.6	39.2 ± 0.5	37.9 ± 0.5	36.6 ± 0.5	35.5 ± 0.5
[1], x1 = 0.6	–	–	–	–	–	38.3 ± 0.5	37.2 ± 0.5	36.1 ± 0.5	35.1 ± 0.5	33.9 ± 0.5
[1], x1 = 0.7	–	–	–	–	–	37.5 ± 0.5	36.4 ± 0.5	35.2 ± 0.5	34.1 ± 0.5	32.9 ± 0.5
[1], x1 = 0.8	–	–	–	–	–	36.2 ± 0.5	35.1 ± 0.5	33.9 ± 0.5	32.7 ± 0.5	31.7 ± 0.5
[1], x1 = 0.9	–	–	–	–	–	35.4 ± 0.5	34.2 ± 0.5	33 ± 0.5	31.9 ± 0.5	30.7 ± 0.5
[1], x1 = 1	–	–	–	–	–	35 ± 0.5	33.8 ± 0.5	32.7 ± 0.5	31.4 ± 0.5	30.3 ± 0.5
[2], x1 = 0.01	1.34 ± 0.001	1.3392 ± 0.001	1.3381 ± 0.001	1.3366 ± 0.001	1.3352 ± 0.0011	–	–	–	–	–
[2], x1 = 0.03	1.3522 ± 0.001	1.3512 ± 0.001	1.3499 ± 0.0009	1.3488 ± 0.001	1.3478 ± 0.001	–	–	–	–	–
[2], x1 = 0.05	1.3635 ± 0.0009	1.3621 ± 0.0009	1.3604 ± 0.0009	1.3592 ± 0.0008	1.3579 ± 0.0008	–	–	–	–	–
[2], x1 = 0.07	1.374 ± 0.0008	1.3723 ± 0.0008	1.3703 ± 0.0008	1.3685 ± 0.0008	1.3667 ± 0.0008	–	–	–	–	–
[2], x1 = 0.1	1.3882 ± 0.0006	1.3859 ± 0.0006	1.3835 ± 0.0006	1.3816 ± 0.0006	1.3797 ± 0.0006	–	–	–	–	–
[2], x1 = 0.2	1.4209 ± 0.0005	1.4173 ± 0.0005	1.4137 ± 0.0005	1.4111 ± 0.0005	1.4085 ± 0.0005	–	–	–	–	–
[2], x1 = 0.3	1.4356 ± 0.0004	1.4317 ± 0.0004	1.4273 ± 0.0004	1.4236 ± 0.0004	1.4208 ± 0.0004	–	–	–	–	–
[2], x1 = 0.4	1.4448 ± 0.0003	1.4405 ± 0.0003	1.4363 ± 0.0003	1.4321 ± 0.0003	1.4279 ± 0.0003	–	–	–	–	–
[2], x1 = 0.5	1.4486 ± 0.0003	1.4443 ± 0.0003	1.4401 ± 0.0003	1.4356 ± 0.0003	1.4311 ± 0.0003	–	–	–	–	–
[2], x1 = 0.6	1.4504 ± 0.0003	1.4459 ± 0.0003	1.4415 ± 0.0003	1.4369 ± 0.0003	1.4323 ± 0.0003	–	–	–	–	–
[2], x1 = 0.7	1.4511 ± 0.0003	1.4466 ± 0.0003	1.4418 ± 0.0003	1.4374 ± 0.0003	1.4325 ± 0.0003	–	–	–	–	–
[2], x1 = 0.8	1.4515 ± 0.0004	1.4468 ± 0.0004	1.442 ± 0.0004	1.4371 ± 0.0004	1.4323 ± 0.0004	–	–	–	–	–
[2], x1 = 0.9	1.4512 ± 0.0004	1.4465 ± 0.0004	1.4415 ± 0.0004	1.4368 ± 0.0004	1.4319 ± 0.0004	–	–	–	–	–
[2], x1 = 1	1.451 ± 0.0004	1.4458 ± 0.0004	1.4409 ± 0.0004	1.4362 ± 0.0004	1.4314 ± 0.0004	–	–	–	–	–
